In ChEMBL document CHEMBL3885881, “DrugMatrix”:

Species on record: Rattus norvegicus
Test: DrugMatrix - Regimen: Daily Repeat
Assay type: toxicity, organism-based, Sprague-Dawley
Set-up: regimen Daily Repeat, gender Male, age 6-8 weeks
Conditions: in vivo, sc, 1.75 mg/kg, route mini-PUMP - SUBCUTANEOUS, dose level High, vehicle 100 % SALINE; for ABSOLUTE BASOPHIL / ABSOLUTE EOSINOPHIL / ABSOLUTE LYMPHOCYTE / ABSOLUTE MONOCYTE / ABSOLUTE SEGMENTED NEUTROPHIL / BASOPHIL / EOSINOPHIL / ERYTHROCYTE COUNT / HEMATOCRIT / HEMOGLOBIN / LEUKOCYTE COUNT / LYMPHOCYTE / MEAN CORPUSCULAR HEMOGLOBIN / MEAN CORPUSCULAR HEMOGLOBIN CONCENTRATION / MEAN CORPUSCULAR VOLUME / MONOCYTE / NEUTROPHIL / NUCLEATED RED BLOOD CELLS / PLATELET COUNT: tissue Blood; for ALANINE AMINOTRANSFERASE / ALBUMIN / ALKALINE PHOSPHATASE / ASPARTATE AMINOTRANSFERASE / BLOOD UREA NITROGEN / CARBON DIOXIDE / CHLORIDE / CHOLESTEROL / CREATININE / GLUCOSE / LACTATE DEHYDROGENASE / LIPASE / PHOSPHORUS / POTASSIUM / SODIUM / TOTAL BILIRUBIN / TOTAL PROTEIN / URIC ACID: tissue Plasma

NC[C@H](O)c1ccc(O)c(O)c1 [NOREPINEPHRINE]
ABSOLUTE BASOPHIL (72 h, time 3 day): 0 CELLS/uL
ABSOLUTE EOSINOPHIL (72 h, time 3 day): 0 CELLS/uL
ABSOLUTE LYMPHOCYTE (72 h, time 3 day): 13450.33 CELLS/uL
ABSOLUTE MONOCYTE (72 h, time 3 day): 275.33 CELLS/uL
ABSOLUTE SEGMENTED NEUTROPHIL (72 h, time 3 day): 1174.33 CELLS/uL
BASOPHIL (72 h, time 3 day): 0%
EOSINOPHIL (72 h, time 3 day): 0%
ERYTHROCYTE COUNT (72 h, time 3 day): 6.14 x10E6/uL
HEMATOCRIT (72 h, time 3 day): 36.87%
HEMOGLOBIN (72 h, time 3 day): 13.53 G/DL
LEUKOCYTE COUNT (72 h, time 3 day): 14.9 x10E3/uL
LYMPHOCYTE (72 h, time 3 day): 90.67%
MEAN CORPUSCULAR HEMOGLOBIN (72 h, time 3 day): 22.03 pg
MEAN CORPUSCULAR HEMOGLOBIN CONCENTRATION (72 h, time 3 day): 36.73 G/DL
MEAN CORPUSCULAR VOLUME (72 h, time 3 day): 60 fL
MONOCYTE (72 h, time 3 day): 2%
NEUTROPHIL (72 h, time 3 day): 7.33%
NUCLEATED RED BLOOD CELLS (72 h, time 3 day): 0.33 /100WBC
PLATELET COUNT (72 h, time 3 day): 1242.33 x10E3/uL
ALANINE AMINOTRANSFERASE (72 h, time 3 day): 42.67 u/L
ALBUMIN (72 h, time 3 day): 4.07 G/DL
ALKALINE PHOSPHATASE (72 h, time 3 day): 322.67 u/L
ASPARTATE AMINOTRANSFERASE (72 h, time 3 day): 89.33 u/L
BLOOD UREA NITROGEN (72 h, time 3 day): 16.67 mg/dL
CARBON DIOXIDE (72 h, time 3 day): 25 mmol/L
CHLORIDE (72 h, time 3 day): 104.33 MEQ/L
CHOLESTEROL (72 h, time 3 day): 72.67 mg/dL
CREATININE (72 h, time 3 day): 0.21 mg/dL
GLUCOSE (72 h, time 3 day): 169 mg/dL
LACTATE DEHYDROGENASE (72 h, time 3 day): 701 u/L
LIPASE (72 h, time 3 day): 9.67 u/L
PHOSPHORUS (72 h, time 3 day): 11.73 mg/dL
POTASSIUM (72 h, time 3 day): 6.75 MEQ/L
SODIUM (72 h, time 3 day): 150.2 MEQ/L
TOTAL BILIRUBIN (72 h, time 3 day): 0.17 mg/dL
TOTAL PROTEIN (72 h, time 3 day): 6.3 G/DL
URIC ACID (72 h, time 3 day): 1.8 mg/dL
ABSOLUTE BASOPHIL (120 h, time 5 day): 0 CELLS/uL
ABSOLUTE EOSINOPHIL (120 h, time 5 day): 0 CELLS/uL
ABSOLUTE LYMPHOCYTE (120 h, time 5 day): 12875 CELLS/uL
ABSOLUTE MONOCYTE (120 h, time 5 day): 478 CELLS/uL
ABSOLUTE SEGMENTED NEUTROPHIL (120 h, time 5 day): 2047 CELLS/uL
BASOPHIL (120 h, time 5 day): 0%
EOSINOPHIL (120 h, time 5 day): 0%
ERYTHROCYTE COUNT (120 h, time 5 day): 6.43 x10E6/uL
HEMATOCRIT (120 h, time 5 day): 38.73%
HEMOGLOBIN (120 h, time 5 day): 14.3 G/DL
LEUKOCYTE COUNT (120 h, time 5 day): 15.4 x10E3/uL
LYMPHOCYTE (120 h, time 5 day): 84.33%
MEAN CORPUSCULAR HEMOGLOBIN (120 h, time 5 day): 22.23 pg
MEAN CORPUSCULAR HEMOGLOBIN CONCENTRATION (120 h, time 5 day): 36.93 G/DL
MEAN CORPUSCULAR VOLUME (120 h, time 5 day): 60.27 fL
MONOCYTE (120 h, time 5 day): 3%
NEUTROPHIL (120 h, time 5 day): 12.67%
NUCLEATED RED BLOOD CELLS (120 h, time 5 day): 0 /100WBC
PLATELET COUNT (120 h, time 5 day): 1321.67 x10E3/uL
ALANINE AMINOTRANSFERASE (120 h, time 5 day): 45 u/L
ALBUMIN (120 h, time 5 day): 4.47 G/DL
ALKALINE PHOSPHATASE (120 h, time 5 day): 289.33 u/L
ASPARTATE AMINOTRANSFERASE (120 h, time 5 day): 74.33 u/L
BLOOD UREA NITROGEN (120 h, time 5 day): 14.67 mg/dL
CARBON DIOXIDE (120 h, time 5 day): 28 mmol/L
CHLORIDE (120 h, time 5 day): 103 MEQ/L
CHOLESTEROL (120 h, time 5 day): 70.67 mg/dL
CREATININE (120 h, time 5 day): 0.13 mg/dL
GLUCOSE (120 h, time 5 day): 203 mg/dL
LACTATE DEHYDROGENASE (120 h, time 5 day): 122 u/L
LIPASE (120 h, time 5 day): 9.33 u/L
PHOSPHORUS (120 h, time 5 day): 12.63 mg/dL
POTASSIUM (120 h, time 5 day): 6.59 MEQ/L
SODIUM (120 h, time 5 day): 150.5 MEQ/L
TOTAL BILIRUBIN (120 h, time 5 day): 0.17 mg/dL
TOTAL PROTEIN (120 h, time 5 day): 6.8 G/DL
URIC ACID (120 h, time 5 day): 2.17 mg/dL
ABSOLUTE BASOPHIL ([…], time 14 day): 0 CELLS/uL
ABSOLUTE EOSINOPHIL ([…], time 14 day): 45.6 CELLS/uL
ABSOLUTE LYMPHOCYTE ([…], time 14 day): 15398.2 CELLS/uL
ABSOLUTE MONOCYTE ([…], time 14 day): 562 CELLS/uL
ABSOLUTE SEGMENTED NEUTROPHIL ([…], time 14 day): 3234.2 CELLS/uL
BASOPHIL ([…], time 14 day): 0%
EOSINOPHIL ([…], time 14 day): 0.2%
ERYTHROCYTE COUNT ([…], time 14 day): 6.59 x10E6/uL
HEMATOCRIT ([…], time 14 day): 38.5%
HEMOGLOBIN ([…], time 14 day): 14.08 G/DL
LEUKOCYTE COUNT ([…], time 14 day): 19.24 x10E3/uL
LYMPHOCYTE ([…], time 14 day): 80.6%
MEAN CORPUSCULAR HEMOGLOBIN ([…], time 14 day): 21.36 pg
MEAN CORPUSCULAR HEMOGLOBIN CONCENTRATION ([…], time 14 day): 36.56 G/DL
MEAN CORPUSCULAR VOLUME ([…], time 14 day): 58.42 fL
MONOCYTE ([…], time 14 day): 3%
NEUTROPHIL ([…], time 14 day): 16.2%
NUCLEATED RED BLOOD CELLS ([…], time 14 day): 0 /100WBC
PLATELET COUNT ([…], time 14 day): 980.2 x10E3/uL
ALANINE AMINOTRANSFERASE ([…], time 14 day): 57.6 u/L
ALBUMIN ([…], time 14 day): 4.18 G/DL
ALKALINE PHOSPHATASE ([…], time 14 day): 349 u/L
ASPARTATE AMINOTRANSFERASE ([…], time 14 day): 86 u/L
BLOOD UREA NITROGEN ([…], time 14 day): 15.8 mg/dL
CARBON DIOXIDE ([…], time 14 day): 30 mmol/L
CHLORIDE ([…], time 14 day): 102.6 MEQ/L
CHOLESTEROL ([…], time 14 day): 72.4 mg/dL
CREATININE ([…], time 14 day): 0.22 mg/dL
GLUCOSE ([…], time 14 day): 187.4 mg/dL
LACTATE DEHYDROGENASE ([…], time 14 day): 105.4 u/L
LIPASE ([…], time 14 day): 8.8 u/L
PHOSPHORUS ([…], time 14 day): 13.42 mg/dL
POTASSIUM ([…], time 14 day): 7.42 MEQ/L
SODIUM ([…], time 14 day): 147.96 MEQ/L
TOTAL BILIRUBIN ([…], time 14 day): 0.16 mg/dL
TOTAL PROTEIN ([…], time 14 day): 6.34 G/DL
URIC ACID ([…], time 14 day): 2.42 mg/dL
